Experimental data: PMC10379611 (International Journal of Molecular Sciences, 2023)
Where two headings read alike, the source gives them in different places.

Tests used:
OATP2B1 = molecular target: T1, OATP2B1 (Homo sapiens, UniProt O94956); assay: OATP2B1 uptake assay (pyranine) in overexpressing A431 cells; format: cell-based; conditions: for IC50: pyranine substrate, A431 cells, pH 5.5, read-out: estimated IC50, OATP2B1
T1 construct: expressed in transfected cells; host or cells: A431
T1 sequence (O94956 1-709): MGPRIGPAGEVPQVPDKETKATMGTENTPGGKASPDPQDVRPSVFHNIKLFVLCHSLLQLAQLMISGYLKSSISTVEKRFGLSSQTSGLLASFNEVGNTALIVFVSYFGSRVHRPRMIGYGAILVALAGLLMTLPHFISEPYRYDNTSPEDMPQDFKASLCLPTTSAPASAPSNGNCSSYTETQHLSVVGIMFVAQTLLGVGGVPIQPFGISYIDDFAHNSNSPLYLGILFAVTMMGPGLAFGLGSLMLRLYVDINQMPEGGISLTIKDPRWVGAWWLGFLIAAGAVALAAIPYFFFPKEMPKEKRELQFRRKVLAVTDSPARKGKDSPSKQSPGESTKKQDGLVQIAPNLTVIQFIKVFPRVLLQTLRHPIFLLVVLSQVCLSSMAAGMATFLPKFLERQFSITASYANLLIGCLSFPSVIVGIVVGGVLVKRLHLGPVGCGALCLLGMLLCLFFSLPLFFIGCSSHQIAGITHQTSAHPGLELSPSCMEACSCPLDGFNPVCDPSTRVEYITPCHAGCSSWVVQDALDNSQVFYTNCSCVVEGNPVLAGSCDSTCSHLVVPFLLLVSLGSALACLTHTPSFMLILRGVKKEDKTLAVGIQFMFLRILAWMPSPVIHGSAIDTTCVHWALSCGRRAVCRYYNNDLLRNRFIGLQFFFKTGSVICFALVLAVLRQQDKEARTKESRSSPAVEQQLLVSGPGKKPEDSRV
Procedure: To study the function of OATPs, we used A431 cells overexpressing OATP1A2, OATP1B1, OATP1B3, or OATP2B1 and mock-transfected A431 cells, generated as previously described, as controls. […] Briefly, OATP-overexpressing A431 cells and mock-transfected A431 cells were seeded on 96-well plates (8 × 10^4 cells/well).

OATP1B1 = molecular target: T2, OATP1B1 (Homo sapiens, UniProt Q9Y6L6); assay: OATP1B1 uptake assay (pyranine) in overexpressing A431 cells
T2 sequence (Q9Y6L6 1-691): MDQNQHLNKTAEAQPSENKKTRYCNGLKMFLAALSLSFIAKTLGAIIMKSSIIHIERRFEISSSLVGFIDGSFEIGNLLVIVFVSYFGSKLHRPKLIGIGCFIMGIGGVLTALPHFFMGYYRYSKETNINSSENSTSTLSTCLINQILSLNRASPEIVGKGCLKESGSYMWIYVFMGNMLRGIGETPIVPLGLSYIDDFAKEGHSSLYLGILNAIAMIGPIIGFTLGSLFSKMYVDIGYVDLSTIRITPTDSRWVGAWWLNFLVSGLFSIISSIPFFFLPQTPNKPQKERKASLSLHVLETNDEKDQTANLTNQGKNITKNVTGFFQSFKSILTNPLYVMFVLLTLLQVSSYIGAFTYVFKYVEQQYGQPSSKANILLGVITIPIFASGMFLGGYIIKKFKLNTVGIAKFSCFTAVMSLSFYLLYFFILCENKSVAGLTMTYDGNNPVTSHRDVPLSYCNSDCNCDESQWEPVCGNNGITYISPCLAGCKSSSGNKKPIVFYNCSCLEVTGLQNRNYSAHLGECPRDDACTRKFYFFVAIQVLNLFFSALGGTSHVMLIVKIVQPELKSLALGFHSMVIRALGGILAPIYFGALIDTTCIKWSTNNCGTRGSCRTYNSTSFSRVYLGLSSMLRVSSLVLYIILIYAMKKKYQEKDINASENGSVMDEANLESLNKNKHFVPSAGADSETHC

OATP1B3 = molecular target: T3, OATP1B3 (Homo sapiens, UniProt Q9NPD5); assay: OATP1B3 uptake assay (pyranine) in overexpressing A431 cells
T3 sequence (Q9NPD5 1-702): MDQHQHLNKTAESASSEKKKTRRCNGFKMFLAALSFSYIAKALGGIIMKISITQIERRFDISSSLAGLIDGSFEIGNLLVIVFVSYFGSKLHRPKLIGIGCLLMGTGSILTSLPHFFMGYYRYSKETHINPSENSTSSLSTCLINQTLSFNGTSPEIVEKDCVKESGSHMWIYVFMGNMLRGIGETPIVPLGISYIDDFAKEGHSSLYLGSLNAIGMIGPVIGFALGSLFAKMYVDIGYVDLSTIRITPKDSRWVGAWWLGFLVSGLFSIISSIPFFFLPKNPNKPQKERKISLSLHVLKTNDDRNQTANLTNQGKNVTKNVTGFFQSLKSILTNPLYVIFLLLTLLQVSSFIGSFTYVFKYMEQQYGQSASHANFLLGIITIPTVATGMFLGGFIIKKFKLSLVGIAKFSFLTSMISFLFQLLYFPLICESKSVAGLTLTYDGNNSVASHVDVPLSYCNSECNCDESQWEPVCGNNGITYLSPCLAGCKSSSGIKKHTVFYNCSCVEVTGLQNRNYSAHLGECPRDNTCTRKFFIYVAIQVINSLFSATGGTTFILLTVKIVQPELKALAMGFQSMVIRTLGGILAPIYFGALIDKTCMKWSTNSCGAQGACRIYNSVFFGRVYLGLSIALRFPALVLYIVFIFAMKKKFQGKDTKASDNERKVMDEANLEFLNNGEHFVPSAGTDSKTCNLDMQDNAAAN

For O=c1nc(NO)ccn1[C@@H]1O[C@H](CO)[C@@H](O)[C@H]1O [EIDD-1931], the “maximum inhibition of OATP2B1” value (OATP2B1; at 200 μM, pyranine) was 20–40%, the IC50 (OATP2B1) was greater than 200 µM and the “maximum inhibition of OATP1B1” value (OATP1B1; at 200 μM, pyranine) was 20–40%. The IC50 (OATP1B1; read-out: estimated IC50, OATP1B1, pyranine substrate, A431 cells) was greater than 200 µM, the “maximum inhibition of OATP1B3” value (OATP1B3; at 200 μM, pyranine) was 20–40% and the IC50 (OATP1B3; read-out: estimated IC50, OATP1B3, pyranine substrate, A431 cells) was greater than 200 µM.

With CC(C)C(=O)OC[C@H]1O[C@@H](n2ccc(NO)nc2=O)[C@H](O)[C@@H]1O [EIDD-2801, Molnupiravir] the inhibition at 10 min, 200 µM (OATP2B1; human, A431 cells overexpressing OATP2B1, pH 5.5, probe pyranine (20 μM), at 200 μM, pyranine, read-out: maximum inhibition of OATP2B1) was 20 to 40%, the IC50 (OATP2B1) was greater than 200 µM and the IC50 (OATP1B1) was greater than 200 µM. For the same molecule, the inhibition at 10 min, 200 µM (OATP1B1; human, A431 cells overexpressing OATP1B1, pH 7.4, probe pyranine (20 μM)) was 20 to 40%, the IC50 (OATP1B3) was greater than 200 µM and the inhibition at 10 min, 200 µM (OATP1B3; human, A431 cells overexpressing OATP1B3, pH 7.4, probe pyranine (20 μM)) was 20 to 40%.

With CC(C)(C)[C@H](NC(=O)C(F)(F)F)C(=O)N1C[C@H]2[C@@H]([C@H]1C(=O)N[C@H](C#N)C[C@@H]1CCNC1=O)C2(C)C [Nirmatrelvir] the “inhibition of OATP2B1 by Nirmatrelvir alone” value (OATP2B1; at 20 μM) was “only a minor inhibitory effect”, the “inhibition of OATP1B1 by Nirmatrelvir alone” value (OATP1B1; at 20 μM) was “only a minor inhibitory effect” and the “inhibition of OATP1B3 by Nirmatrelvir alone” value (OATP1B3; at 20 μM) was “only a minor inhibitory effect”.
